Tested on: STZ-induced diabetic C57BL/6 mice
Test: Blood glucose monitoring after transplantation of encapsulated rat islets with or without drug
Type: in vivo
Method: Immediately prior to encapsulation, the cultured islets were centrifuged at 1,400 rpm for 1 minute and washed with Ca-free Krebs-Henseleit (KH) Buffer (4.7 mM KCl, 25 mM HEPES, 1.2 mM KH2PO4, 1.2 mM MgSO4×7H2O, 135 mM NaCl, pH≈7.4, ≈290 mOsm). After washing, islets were centrifuged again and all supernatant was aspirated. The islet pellet was then re-suspended in a 2.0% solution of SLG20 alginate dissolved in 0.9% NaCl solution at an islet density of 1,000 islets per 1.0 ml alginate solution. Spheres were crosslinked using a BaCl2 gelling solution and their sizes were controlled using similar procedures as the empty spheres (described above). Immediately after crosslinking, the encapsulated islets were washed 4 times with HEPES buffer and 2 times with RPMI Medium 1640 with 10% HIFBS and cultured overnight at 37° C. for transplantation. As the islets had variable sizes (50-400 μm) and there was an inevitable loss of islets during the encapsulation process, the total number of encapsulated islets were recounted and converted into islet equivalents (IE, normalized to 150 μm size) based on a previously published method (Ricordi, C. et al. Islet isolation assessment in man and large animals. Acta 18 Diabetol. Lat. 27, 185195 (1990)) prior to transplantation.
All animal protocols were approved by the MIT Committee on Animal Care, and all surgical procedures and post-operative care was supervised by MIT Division of Comparative Medicine veterinary staff. Immune-competent male non-diabetic or STZ-induced diabetic C57BL/6 mice (Jackson Laboratory, Bar Harbor, Me.) were anesthetized with 3% isoflurane in oxygen and had their abdomens shaved and sterilized using betadine and isopropanol. Preoperatively, all mice also received a 0.05 mg/kg dose of buprenorphine subcutaneously as a pre-surgical analgesic, along with 0.3 mL of 0.9% saline subcutaneously to prevent dehydration. […]
Blood glucose levels were monitored three times a week following transplantation of islet-containing alginate capsules. […]

## COc1ccc(COc2ccc(Cc3cnc(N)nc3N)cc2OC)cc1 [GW2580, 5-[[3-Methoxy-4-[(4-methoxyphenyl)methoxy]phenyl]methyl]-2,4-pyrimidinediamine]
amorphous
  improvement of normoglycemia duration over controls: 2 fold
crystalline
  improvement of normoglycemia duration over controls: approximately 13 fold
crystalline, 0.5 mm alginate microspheres
  duration of maintained normoglycemia: over 1.25 years

— patent US10851069B2, “Compositions of crystallized hydrophobic compounds and methods of making and using same” (Massachusetts Institute of Technology, priority 2016, dated 2020)
